Laboratory results taken from the supplement of paper PMC10307832.

Experiments:
Experiment in all cases: relative viability (nuclei count vs DMSO), 5 days (fraction); higher = more cells survive
AT-7519 + Dasatinib = compound: O=C(NC1CCNCC1)c1n[nH]cc1NC(=O)c1c(Cl)cccc1Cl [AT-7519] + Cc1nc(Nc2ncc(C(=O)Nc3c(C)cccc3Cl)s2)cc(N2CCN(CCO)CC2)n1 [Dasatinib] (partner 0.075 µM)
Summary of the method: (§1)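 Cells from lung cancer lines were seeded into 1536-well plates and, one day later, dosed by pin tool. Treatments were either a single drug or a fixed dose of an anchor drug with five library-drug doses (not always all listed) in √10 steps. After 5 days, nuclei were stained in a one-step fixation (final 0.05% Triton X-100, 1% formaldehyde, 1 ug/ml Hoechst) and counted on 4× images, and relative viability is the treated-to-vehicle nuclei ratio, as the median of duplicate plates.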

AT-7519 + Luminespib = compound: O=C(NC1CCNCC1)c1n[nH]cc1NC(=O)c1c(Cl)cccc1Cl [AT-7519] + CCNC(=O)c1noc(-c2cc(C(C)C)c(O)cc2O)c1-c1ccc(CN2CCOCC2)cc1 [Luminespib] (partner 0.01 µM)
Summary of the method: as §1

[1] = compound: C1=CC2=C(C=C(C(=C2N=C1)O)N=NC3=CC4=C(C=C3)C=C(C=C4)S(=O)(=O)O)S(=O)(=O)O + CC(C)C[C@H](NC(=O)[C@H](Cc1ccccc1)NC(=O)c1cnccn1)B(O)O [Bortezomib] (partner 0.002 µM)
Summary of the method: as §1

[2] = compound: C1=CC2=C(C=C(C(=C2N=C1)O)N=NC3=CC4=C(C=C3)C=C(C=C4)S(=O)(=O)O)S(=O)(=O)O + Nc1ncn([C@H]2C[C@H](O)[C@@H](CO)O2)c(=O)n1 [Decitabine] (partner 2 µM)
Summary of the method: as §1

NCI-H3122 showed a relative viability (AT-7519 + Dasatinib; first compound 0.01 µM) of 0.917, a relative viability (AT-7519 + Dasatinib; first compound 0.03162 µM) of 0.805 and a relative viability (AT-7519 + Dasatinib; first compound 0.3162 µM) of 0.809. It also gave a relative viability (AT-7519 + Dasatinib; first compound 1 µM) of 0.354, a relative viability (AT-7519 + Luminespib; first compound 0.01 µM) of 0.104 and a relative viability (AT-7519 + Luminespib; first compound 0.03162 µM) of 0.0901. It also gave a relative viability (AT-7519 + Luminespib; first compound 0.3162 µM) of 0.112, a relative viability (AT-7519 + Luminespib; first compound 1 µM) of 0.0695 and a relative viability ([1]; first compound 0.08 µM) of 0.975. It also gave a relative viability ([1]; first compound 0.253 µM) of 0.899, a relative viability ([1]; first compound 0.8 µM) of 1.02 and a relative viability ([1]; first compound 2.53 µM) of 0.996. The relative viability ([1]; first compound 8 µM) was 0.987, the relative viability ([2]; first compound 0.08 µM) was 0.415 and the relative viability ([2]; first compound 0.253 µM) was 0.471. It also gave a relative viability ([2]; first compound 0.8 µM) of 0.472, a relative viability ([2]; first compound 2.53 µM) of 0.448 and a relative viability ([2]; first compound 8 µM) of 0.439.
In the case of PC-3 [JPC-3], the relative viability (AT-7519 + Dasatinib; first compound 0.01 µM) is reported as 0.841, the relative viability (AT-7519 + Dasatinib; first compound 0.03162 µM) is reported as 0.99 and the relative viability (AT-7519 + Dasatinib; first compound 0.3162 µM) is reported as 0.915. For the same cell line, the relative viability (AT-7519 + Dasatinib; first compound 1 µM) was 1.04, the relative viability (AT-7519 + Luminespib; first compound 0.01 µM) was 0.515 and the relative viability (AT-7519 + Luminespib; first compound 0.03162 µM) was 0.558. It also gave a relative viability (AT-7519 + Luminespib; first compound 0.3162 µM) of 0.694, a relative viability (AT-7519 + Luminespib; first compound 1 µM) of 0.623 and a relative viability ([1]; first compound 0.08 µM) of 0.908. The relative viability ([1]; first compound 0.253 µM) was 0.849, the relative viability ([1]; first compound 0.8 µM) was 0.768 and the relative viability ([1]; first compound 2.53 µM) was 0.794. It also gave a relative viability ([1]; first compound 8 µM) of 0.851, a relative viability ([2]; first compound 0.08 µM) of 0.843 and a relative viability ([2]; first compound 0.253 µM) of 0.793. For the same cell line, the relative viability ([2]; first compound 0.8 µM) was 0.833, the relative viability ([2]; first compound 2.53 µM) was 0.883 and the relative viability ([2]; first compound 8 µM) was 0.814.
Cell Line PC-14 has a relative viability (AT-7519 + Dasatinib; first compound 0.01 µM) of 0.241, a relative viability (AT-7519 + Dasatinib; first compound 0.03162 µM) of 0.239 and a relative viability (AT-7519 + Dasatinib; first compound 0.3162 µM) of 0.163. For the same cell line, the relative viability (AT-7519 + Dasatinib; first compound 1 µM) was 0.0573, the relative viability (AT-7519 + Luminespib; first compound 0.01 µM) was 0.196 and the relative viability (AT-7519 + Luminespib; first compound 0.03162 µM) was 0.151. The relative viability (AT-7519 + Luminespib; first compound 0.3162 µM) was 0.151, the relative viability (AT-7519 + Luminespib; first compound 1 µM) was 0.111 and the relative viability ([1]; first compound 0.08 µM) was 0.923. For the same cell line, the relative viability ([1]; first compound 0.253 µM) was 0.839, the relative viability ([1]; first compound 0.8 µM) was 0.906 and the relative viability ([1]; first compound 2.53 µM) was 0.888. It also gave a relative viability ([1]; first compound 8 µM) of 0.856, a relative viability ([2]; first compound 0.08 µM) of 0.184 and a relative viability ([2]; first compound 0.253 µM) of 0.229. For the same cell line, the relative viability ([2]; first compound 0.8 µM) was 0.217, the relative viability ([2]; first compound 2.53 µM) was 0.266 and the relative viability ([2]; first compound 8 µM) was 0.217.
For RERF-LC-KJ, the relative viability (AT-7519 + Dasatinib; first compound 0.01 µM) was 0.903, the relative viability (AT-7519 + Dasatinib; first compound 0.03162 µM) was 0.847 and the relative viability (AT-7519 + Dasatinib; first compound 0.3162 µM) was 0.611. It also gave a relative viability (AT-7519 + Dasatinib; first compound 1 µM) of 0.195, a relative viability (AT-7519 + Luminespib; first compound 0.01 µM) of 1.18 and a relative viability (AT-7519 + Luminespib; first compound 0.03162 µM) of 1.21. It also gave a relative viability (AT-7519 + Luminespib; first compound 0.3162 µM) of 0.856, a relative viability (AT-7519 + Luminespib; first compound 1 µM) of 0.311 and a relative viability ([1]; first compound 0.08 µM) of 1.39. The relative viability ([1]; first compound 0.253 µM) was 1.1, the relative viability ([1]; first compound 0.8 µM) was 1.08 and the relative viability ([1]; first compound 2.53 µM) was 1.2. The relative viability ([1]; first compound 8 µM) was 1.14, the relative viability ([2]; first compound 0.08 µM) was 0.654 and the relative viability ([2]; first compound 0.253 µM) was 0.684. The relative viability ([2]; first compound 0.8 µM) was 0.637, the relative viability ([2]; first compound 2.53 µM) was 0.761 and the relative viability ([2]; first compound 8 µM) was 0.631.
For SK-LU-1, the relative viability (AT-7519 + Dasatinib; first compound 0.01 µM) was 0.171, the relative viability (AT-7519 + Dasatinib; first compound 0.03162 µM) was 0.155 and the relative viability (AT-7519 + Dasatinib; first compound 0.3162 µM) was 0.157. It also gave a relative viability (AT-7519 + Dasatinib; first compound 1 µM) of 0.163, a relative viability (AT-7519 + Luminespib; first compound 0.01 µM) of 0.221 and a relative viability (AT-7519 + Luminespib; first compound 0.03162 µM) of 0.195. It also gave a relative viability (AT-7519 + Luminespib; first compound 0.3162 µM) of 0.202, a relative viability (AT-7519 + Luminespib; first compound 1 µM) of 0.2 and a relative viability ([1]; first compound 0.08 µM) of 1.05. The relative viability ([1]; first compound 0.253 µM) was 0.942, the relative viability ([1]; first compound 0.8 µM) was 0.963 and the relative viability ([1]; first compound 2.53 µM) was 1.1. For the same cell line, the relative viability ([1]; first compound 8 µM) was 0.99, the relative viability ([2]; first compound 0.08 µM) was 0.795 and the relative viability ([2]; first compound 0.253 µM) was 0.679. It also gave a relative viability ([2]; first compound 0.8 µM) of 0.664, a relative viability ([2]; first compound 2.53 µM) of 0.616 and a relative viability ([2]; first compound 8 µM) of 0.655.
With SW 1573 the relative viability (AT-7519 + Dasatinib; first compound 0.01 µM) was 0.762, the relative viability (AT-7519 + Dasatinib; first compound 0.03162 µM) was 0.466 and the relative viability (AT-7519 + Dasatinib; first compound 0.3162 µM) was 0.255. It also gave a relative viability (AT-7519 + Dasatinib; first compound 1 µM) of 0.0794, a relative viability (AT-7519 + Luminespib; first compound 0.01 µM) of 0.223 and a relative viability (AT-7519 + Luminespib; first compound 0.03162 µM) of 0.203. For the same cell line, the relative viability (AT-7519 + Luminespib; first compound 0.3162 µM) was 0.149, the relative viability (AT-7519 + Luminespib; first compound 1 µM) was 0.126 and the relative viability ([1]; first compound 0.08 µM) was 0.931. For the same cell line, the relative viability ([1]; first compound 0.253 µM) was 1.02, the relative viability ([1]; first compound 0.8 µM) was 1.04 and the relative viability ([1]; first compound 2.53 µM) was 0.976. For the same cell line, the relative viability ([1]; first compound 8 µM) was 1.03, the relative viability ([2]; first compound 0.08 µM) was 0.55 and the relative viability ([2]; first compound 0.253 µM) was 0.494. For the same cell line, the relative viability ([2]; first compound 0.8 µM) was 0.419, the relative viability ([2]; first compound 2.53 µM) was 0.494 and the relative viability ([2]; first compound 8 µM) was 0.275.
